Experimental data from ChEMBL document CHEMBL1129258, “Synthesis and structure-activity relationships of 2-pyridones: a novel series of potent DNA gyrase inhibitors as antibacterial agents” (J Med Chem, 1996).
Converted amounts (≈) assume the structure as drawn.

What was measured:
[1] = target: T1, DNA gyrase (Escherichia coli) (UniProt P0AES6+P0AES4); assay: In vitro antibacterial activity against gram-negative organism […] ATCC 13048; format: functional; settings: Enterobacter aerogenes
[2] = target: T2, DNA gyrase (Staphylococcus aureus) (UniProt P0A0K8+P20831); assay: In vitro antibacterial activity against gram-positive organism Staphylococcus aureus ATCC 6538p; format: functional
T2 sequence (P0A0K8 2-644 limits assumed): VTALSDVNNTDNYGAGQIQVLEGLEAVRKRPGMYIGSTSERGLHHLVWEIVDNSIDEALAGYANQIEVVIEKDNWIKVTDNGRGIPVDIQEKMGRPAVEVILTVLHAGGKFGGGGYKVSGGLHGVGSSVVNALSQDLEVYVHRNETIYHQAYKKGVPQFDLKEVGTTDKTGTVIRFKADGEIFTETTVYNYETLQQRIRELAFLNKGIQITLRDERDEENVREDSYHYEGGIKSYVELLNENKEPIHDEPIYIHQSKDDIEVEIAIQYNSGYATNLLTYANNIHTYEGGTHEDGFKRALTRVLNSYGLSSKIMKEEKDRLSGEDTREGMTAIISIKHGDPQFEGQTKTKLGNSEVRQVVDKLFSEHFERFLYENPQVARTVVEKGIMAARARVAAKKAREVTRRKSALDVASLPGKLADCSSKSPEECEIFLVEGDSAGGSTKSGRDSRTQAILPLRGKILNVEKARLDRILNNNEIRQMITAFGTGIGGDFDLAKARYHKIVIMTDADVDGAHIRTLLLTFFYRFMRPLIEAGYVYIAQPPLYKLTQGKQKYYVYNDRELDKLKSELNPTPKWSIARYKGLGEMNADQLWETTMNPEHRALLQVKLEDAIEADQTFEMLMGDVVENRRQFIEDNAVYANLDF
T2 sequence (P20831 whole entry partner): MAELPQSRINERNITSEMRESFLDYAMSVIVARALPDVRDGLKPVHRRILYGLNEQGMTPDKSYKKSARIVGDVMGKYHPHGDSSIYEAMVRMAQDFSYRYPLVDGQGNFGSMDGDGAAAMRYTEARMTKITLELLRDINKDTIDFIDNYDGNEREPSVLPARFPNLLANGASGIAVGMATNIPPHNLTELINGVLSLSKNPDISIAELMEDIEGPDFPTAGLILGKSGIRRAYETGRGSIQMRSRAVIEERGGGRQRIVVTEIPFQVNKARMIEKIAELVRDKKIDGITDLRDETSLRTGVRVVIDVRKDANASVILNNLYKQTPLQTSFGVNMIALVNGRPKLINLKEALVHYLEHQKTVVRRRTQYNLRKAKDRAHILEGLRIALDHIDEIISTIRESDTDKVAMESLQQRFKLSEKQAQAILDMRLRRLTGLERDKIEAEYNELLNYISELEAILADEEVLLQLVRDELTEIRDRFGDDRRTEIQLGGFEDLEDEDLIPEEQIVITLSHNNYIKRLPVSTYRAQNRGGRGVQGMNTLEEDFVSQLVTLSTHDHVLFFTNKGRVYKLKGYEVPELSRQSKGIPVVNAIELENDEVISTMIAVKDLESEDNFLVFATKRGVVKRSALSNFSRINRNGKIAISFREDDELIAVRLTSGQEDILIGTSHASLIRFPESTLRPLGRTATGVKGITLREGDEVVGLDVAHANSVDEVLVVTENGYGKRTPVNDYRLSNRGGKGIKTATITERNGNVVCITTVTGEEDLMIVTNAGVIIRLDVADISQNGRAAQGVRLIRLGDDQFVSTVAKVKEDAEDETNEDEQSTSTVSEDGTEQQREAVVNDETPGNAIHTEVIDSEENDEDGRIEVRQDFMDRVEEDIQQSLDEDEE

[3] = In vitro antibacterial activity against gram-negative organism Pseudomonas aeruginosa DPHD-2862; format: functional; settings: Pseudomonas aeruginosa; read-out: MIC
[4] = target: T2, DNA gyrase (Staphylococcus aureus); assay: In vitro antibacterial activity against gram-positive organism Staphylococcus aureus 1775; format: functional
Streptococcus pyogenes = assay: In vitro antibacterial activity against gram-positive organism Streptococcus pyogenes EES61; format: functional; settings: Streptococcus pyogenes; read-out: MIC
[5] = In vitro antibacterial activity against gram-negative organism Pseudomonas aeruginosa 5007; format: functional; settings: Pseudomonas aeruginosa; read-out: MIC
[6] = target: T1, DNA gyrase (Escherichia coli); assay: In vitro antibacterial activity against gram-negative organism Klebsiella pneumoniae ATCC 8045; format: functional
[7] = target: T1, DNA gyrase (Escherichia coli); assay: In vitro antibacterial activity against gram-positive organism Streptococcus bovis A-5169; format: functional; settings: Streptococcus equinus
[8] = target: T2, DNA gyrase (Staphylococcus aureus); assay: In vitro antibacterial activity against gram-positive organism Staphylococcus aureus NCTC-10649M; format: functional
[9] = target: T1, DNA gyrase (Escherichia coli); assay: In vitro antibacterial against gram-negative organism Escherichia coli JUHL; format: functional; settings: Escherichia coli K-12
[10] = target: T1, DNA gyrase (Escherichia coli); assay: In vitro antibacterial activity against gram-positive organism Enterococcus faecium ATCC 8043; format: functional
[11] = target: T1, DNA gyrase (Escherichia coli); assay: In vitro antibacterial activity against gram-negative organism Prov. stuartii CMX-640; format: functional; settings: Providencia stuartii
[12] = target: T1, DNA gyrase (Escherichia coli); settings: Escherichia coli K-12
Description: Concentration which causes 50% of the gyrase (Escherichia coli H560)-mediated maximal DNA cleavage.

Row | Structure (SMILES) | MIC [1] [µg/mL] | MIC [2] [µg/mL] | MIC [3] [µg/mL] | MIC [4] [µg/mL] | MIC (Streptococcus pyogenes) [µg/mL] | MIC [5] [µg/mL] | MIC [6] [µg/mL] | MIC [7] [µg/mL] | MIC [8] [µg/mL] | MIC [9] [µg/mL] | MIC [10] [µg/mL] | MIC [11] [µg/mL] | CC50 [12] [µg/mL]
1 | COc1ccc(-c2cc(C(=O)O)c(=O)n3cc(F)c(N4CCC(N)C4)nc23)cc1 (stereo not drawn) | 25 (≈ 62.8 µM) | 50 (≈ 126 µM) | 50 (≈ 126 µM) | 100 (≈ 251 µM) | 25 (≈ 62.8 µM) | 100 (≈ 251 µM) | 12.5 (≈ 31.4 µM) | 25 (≈ 62.8 µM) | 50 (≈ 126 µM) | 25 (≈ 62.8 µM) | 25 (≈ 62.8 µM) | > 100 | 
2 | COc1c(N2CCC(N)C2)c(F)cn2c(=O)c(C(=O)O)cc(C3CC3)c12 (stereo not drawn) | 0.05 (≈ 0.138 µM) | 0.05 (≈ 0.138 µM) | 3.1 (≈ 8.58 µM) | 3.1 (≈ 8.58 µM) | 0.2 (≈ 0.553 µM) | 0.39 (≈ 1.08 µM) | 0.01 (≈ 0.0277 µM) | 0.39 (≈ 1.08 µM) | 0.05 (≈ 0.138 µM) | 0.02 (≈ 0.0553 µM) | 0.2 (≈ 0.553 µM) | 1.56 (≈ 4.32 µM) | 0.3 (≈ 0.83 µM)
3 | C[C@H]1C[C@H](N)CN1c1nc2c(-c3ccc(F)cc3F)cc(C(=O)O)c(=O)n2cc1F | 0.1 (≈ 0.239 µM) | 0.1 (≈ 0.239 µM) | 50 (≈ 120 µM) | 50 (≈ 120 µM) | 0.78 (≈ 1.86 µM) | 0.39 (≈ 0.932 µM) | 0.01 (≈ 0.0239 µM) | 1.56 (≈ 3.73 µM) | 0.1 (≈ 0.239 µM) | 0.02 (≈ 0.0478 µM) | 0.78 (≈ 1.86 µM) | 6.2 (≈ 14.8 µM) | 0.5 (≈ 1.2 µM)
4 | Cc1c(N2CCC(c3ccccn3)C2)c(F)cn2c(=O)c(C(=O)O)cc(C3CC3)c12 (stereo not drawn) | 0.78 (≈ 1.91 µM) | 0.01 (≈ 0.0245 µM) | 12.5 (≈ 30.7 µM) | 0.2 (≈ 0.491 µM) | 0.05 (≈ 0.123 µM) | 0.78 (≈ 1.91 µM) | 0.05 (≈ 0.123 µM) | 0.05 (≈ 0.123 µM) | 0.02 (≈ 0.0491 µM) | 0.05 (≈ 0.123 µM) | 0.05 (≈ 0.123 µM) | 1.56 (≈ 3.83 µM) | 2.6 (≈ 6.38 µM)
5 | O=C(O)c1cc(C2CC2)c2nc(N3CCOCC3)c(F)cn2c1=O | 3.1 (≈ 9.3 µM) | 6.2 (≈ 18.6 µM) |  | > 100 | > 100 | 25 (≈ 75 µM) | 0.39 (≈ 1.17 µM) | > 100 | 6.2 (≈ 18.6 µM) | 3.1 (≈ 9.3 µM) | > 100 | > 100 | 1.5 (≈ 4.5 µM)
6 | CO[C@@H]1CN(c2c(F)cn3c(=O)c(C(=O)O)cc(C4CC4)c3c2C)C[C@H]1N | 0.2 (≈ 0.533 µM) | 0.05 (≈ 0.133 µM) | 25 (≈ 66.6 µM) | 3.1 (≈ 8.26 µM) | 0.39 (≈ 1.04 µM) | 1.56 (≈ 4.16 µM) | 0.05 (≈ 0.133 µM) | 0.39 (≈ 1.04 µM) | 0.05 (≈ 0.133 µM) | 0.05 (≈ 0.133 µM) | 0.39 (≈ 1.04 µM) | 3.1 (≈ 8.26 µM) | 
7 | Cc1c(N2C[C@@H]3C[C@H]2CN3)c(F)cn2c(=O)c(C(=O)O)cc(C3CC3)c12 | 0.1 (≈ 0.28 µM) | 0.1 (≈ 0.28 µM) | 6.2 (≈ 17.3 µM) | 6.2 (≈ 17.3 µM) | 0.2 (≈ 0.56 µM) | 0.2 (≈ 0.56 µM) | 0.05 (≈ 0.14 µM) | 0.39 (≈ 1.09 µM) | 0.2 (≈ 0.56 µM) | 0.02 (≈ 0.056 µM) | 0.2 (≈ 0.56 µM) | 0.78 (≈ 2.18 µM) | 
8 | CCc1c(N2CCC(N)C2)c(F)cn2c(=O)c(C(=O)O)cc(C3CC3)c12 (stereo not drawn) | 0.39 (≈ 1.09 µM) | 0.1 (≈ 0.278 µM) | 50 (≈ 139 µM) | 6.2 (≈ 17.3 µM) | 0.39 (≈ 1.09 µM) | 1.56 (≈ 4.34 µM) | 0.1 (≈ 0.278 µM) |  | 0.1 (≈ 0.278 µM) | 0.2 (≈ 0.556 µM) | 0.39 (≈ 1.09 µM) | 3.1 (≈ 8.63 µM) | 
9 | Cc1c(N2C[C@@H](N)C[C@H]2C)c(F)cn2c(=O)c(C(=O)O)cc(C3CC3)c12 | 0.1 (≈ 0.278 µM) | 0.01 (≈ 0.0278 µM) | 3.1 (≈ 8.63 µM) | 0.78 (≈ 2.17 µM) | 0.2 (≈ 0.556 µM) | 0.78 (≈ 2.17 µM) | 0.01 (≈ 0.0278 µM) | 0.1 (≈ 0.278 µM) | 0.02 (≈ 0.0556 µM) | 0.1 (≈ 0.278 µM) | 0.05 (≈ 0.139 µM) | 3.1 (≈ 8.63 µM) | 
10 | Cc1ccc(S(=O)(=O)O)cc1.NC1CCN(c2nc3c(cc2F)c(=O)c(C(=O)O)cn3-c2ccc(F)cc2F)C1 (stereo not drawn) [TOSUFLOXACIN TOSYLATE] | 0.05 | 0.05 | > 100 | > 100 | 0.39 | 0.39 | 0.02 | 0.78 | 0.05 | 0.05 | 0.2 | 1.56 | 
11 | Cc1c(N(C)CCN)c(F)cn2c(=O)c(C(=O)O)cc(C3CC3)c12 | 1.56 (≈ 4.68 µM) | 1.56 (≈ 4.68 µM) | > 100 | > 100 | 12.5 (≈ 37.5 µM) | 6.2 (≈ 18.6 µM) | 0.2 (≈ 0.6 µM) | 12.5 (≈ 37.5 µM) | 1.56 (≈ 4.68 µM) | 0.78 (≈ 2.34 µM) | 3.1 (≈ 9.3 µM) | 25 (≈ 75 µM) | 
12 | Cc1c(N2CCC(C)(N)C2)c(F)cn2c(=O)c(C(=O)O)cc(C3CC3)c12 (stereo not drawn) | 0.05 (≈ 0.139 µM) | 0.02 (≈ 0.0556 µM) | 6.2 (≈ 17.3 µM) | 1.56 (≈ 4.34 µM) | 0.1 (≈ 0.278 µM) | 0.2 (≈ 0.556 µM) | 0.01 (≈ 0.0278 µM) | 0.1 (≈ 0.278 µM) | 0.05 (≈ 0.139 µM) | 0.01 (≈ 0.0278 µM) | 0.1 (≈ 0.278 µM) | 0.78 (≈ 2.17 µM) | 
13 | CCc1cc(C(=O)O)c(=O)n2ccc(N3CCC(N)C3)cc12.Cl (stereo not drawn) | 3.1 | 3.1 |  |  | 25 | 6.2 | 3.1 | 25 | 6.2 | 3.1 | 50 | 25 | 
14 | Cc1c(-n2ccnc2)c(F)cn2c(=O)c(C(=O)O)cc(C3CC3)c12 | 0.39 (≈ 1.19 µM) | 0.1 (≈ 0.306 µM) | > 100 | 6.2 (≈ 18.9 µM) | 1.56 (≈ 4.77 µM) | 6.2 (≈ 18.9 µM) | 0.2 (≈ 0.611 µM) |  | 0.2 (≈ 0.611 µM) | 0.39 (≈ 1.19 µM) | 0.39 (≈ 1.19 µM) | 12.5 (≈ 38.2 µM) | 0.3 (≈ 0.917 µM)
15 | CN1CCN(c2nc3c(-c4ccc(F)cc4)cc(C(=O)O)c(=O)n3cc2F)CC1 | 0.78 (≈ 1.95 µM) | 0.39 (≈ 0.974 µM) |  | 25 (≈ 62.4 µM) | 6.2 (≈ 15.5 µM) | 6.2 (≈ 15.5 µM) | 0.2 (≈ 0.5 µM) | 25 (≈ 62.4 µM) | 0.39 (≈ 0.974 µM) | 0.39 (≈ 0.974 µM) | 25 (≈ 62.4 µM) | 25 (≈ 62.4 µM) | 
16 | Cc1c(N2CCCNCC2)c(F)cn2c(=O)c(C(=O)O)cc(C3CC3)c12 | 0.1 (≈ 0.278 µM) | 0.1 (≈ 0.278 µM) | 6.2 (≈ 17.3 µM) | 25 (≈ 69.6 µM) | 0.39 (≈ 1.09 µM) | 0.78 (≈ 2.17 µM) | 0.05 (≈ 0.139 µM) | 0.78 (≈ 2.17 µM) | 0.2 (≈ 0.556 µM) | 0.02 (≈ 0.0556 µM) | 0.2 (≈ 0.556 µM) | 3.1 (≈ 8.63 µM) | 
17 | CN1CCN(c2nc3c(-c4ccc(F)cc4F)cc(C(=O)O)c(=O)n3cc2F)CC1 | 0.78 (≈ 1.86 µM) | 0.2 (≈ 0.478 µM) | > 100 | > 100 | 3.1 (≈ 7.41 µM) | 6.2 (≈ 14.8 µM) | 0.2 (≈ 0.478 µM) | 12.5 (≈ 29.9 µM) | 0.2 (≈ 0.478 µM) | 0.39 (≈ 0.932 µM) | 6.2 (≈ 14.8 µM) | 25 (≈ 59.8 µM) | 
